Columns and labels:
[1] = biological target: T1, Peroxisome proliferator-activated receptor alpha (Mus musculus, UniProt P23204); experiment: Agonist activity against PPAR alpha; type: functional
T1 sequence (P23204 whole entry): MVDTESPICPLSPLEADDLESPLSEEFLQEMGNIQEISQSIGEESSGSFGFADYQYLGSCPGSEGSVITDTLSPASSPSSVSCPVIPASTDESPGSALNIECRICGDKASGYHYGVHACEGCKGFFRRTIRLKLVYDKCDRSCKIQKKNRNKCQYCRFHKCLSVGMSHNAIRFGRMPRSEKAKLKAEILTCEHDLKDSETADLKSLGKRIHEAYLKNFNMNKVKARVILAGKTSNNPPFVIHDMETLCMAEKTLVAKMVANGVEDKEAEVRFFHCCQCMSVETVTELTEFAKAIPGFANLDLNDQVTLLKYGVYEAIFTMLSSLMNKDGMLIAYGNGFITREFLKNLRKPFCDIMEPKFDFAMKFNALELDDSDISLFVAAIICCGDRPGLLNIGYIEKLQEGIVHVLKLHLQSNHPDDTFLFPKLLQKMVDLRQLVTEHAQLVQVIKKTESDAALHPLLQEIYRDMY

[2] = biological target: T2, Peroxisome proliferator-activated receptor gamma (Mus musculus, UniProt P37238); experiment: Agonist activity against PPAR gamma; type: functional
T2 sequence (P37238 whole entry): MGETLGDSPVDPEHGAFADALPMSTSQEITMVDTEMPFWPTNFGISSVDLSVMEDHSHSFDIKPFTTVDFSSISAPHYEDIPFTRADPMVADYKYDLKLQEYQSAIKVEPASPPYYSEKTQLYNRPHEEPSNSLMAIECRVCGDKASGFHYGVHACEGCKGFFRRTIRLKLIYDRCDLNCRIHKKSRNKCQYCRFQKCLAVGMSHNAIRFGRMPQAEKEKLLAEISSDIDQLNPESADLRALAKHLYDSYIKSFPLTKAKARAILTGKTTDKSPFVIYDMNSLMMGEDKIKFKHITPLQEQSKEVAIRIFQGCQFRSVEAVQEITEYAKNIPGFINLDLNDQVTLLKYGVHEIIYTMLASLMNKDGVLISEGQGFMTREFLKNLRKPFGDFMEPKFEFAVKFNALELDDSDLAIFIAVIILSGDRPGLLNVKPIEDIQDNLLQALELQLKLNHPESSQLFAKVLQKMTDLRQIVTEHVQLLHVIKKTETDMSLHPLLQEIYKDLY

[3] = biological target: T3, Peroxisome proliferator-activated receptor delta (Mus musculus, UniProt P35396); experiment: Agonist activity against PPAR delta; type: functional
T3 sequence (P35396 whole entry): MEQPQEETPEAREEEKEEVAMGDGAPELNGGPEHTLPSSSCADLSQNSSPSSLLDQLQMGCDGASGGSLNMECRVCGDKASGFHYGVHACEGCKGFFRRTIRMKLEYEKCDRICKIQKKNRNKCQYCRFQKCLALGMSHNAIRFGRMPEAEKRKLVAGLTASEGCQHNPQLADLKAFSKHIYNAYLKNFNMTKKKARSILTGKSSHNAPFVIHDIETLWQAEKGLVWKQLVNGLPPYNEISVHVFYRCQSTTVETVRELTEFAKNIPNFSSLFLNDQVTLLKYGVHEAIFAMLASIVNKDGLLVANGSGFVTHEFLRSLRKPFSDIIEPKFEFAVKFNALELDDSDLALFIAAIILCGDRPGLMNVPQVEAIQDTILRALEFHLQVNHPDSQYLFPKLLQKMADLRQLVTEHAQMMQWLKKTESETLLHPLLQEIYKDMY

[4] = biological target: T4, Peroxisome proliferator-activated receptor gamma (Homo sapiens, UniProt P37231); experiment: Agonistic transcriptional activity in CV-1 cells expressing Gal4-PPAR gamma chimera; type: functional, cell-based
T4 sequence (P37231 whole entry): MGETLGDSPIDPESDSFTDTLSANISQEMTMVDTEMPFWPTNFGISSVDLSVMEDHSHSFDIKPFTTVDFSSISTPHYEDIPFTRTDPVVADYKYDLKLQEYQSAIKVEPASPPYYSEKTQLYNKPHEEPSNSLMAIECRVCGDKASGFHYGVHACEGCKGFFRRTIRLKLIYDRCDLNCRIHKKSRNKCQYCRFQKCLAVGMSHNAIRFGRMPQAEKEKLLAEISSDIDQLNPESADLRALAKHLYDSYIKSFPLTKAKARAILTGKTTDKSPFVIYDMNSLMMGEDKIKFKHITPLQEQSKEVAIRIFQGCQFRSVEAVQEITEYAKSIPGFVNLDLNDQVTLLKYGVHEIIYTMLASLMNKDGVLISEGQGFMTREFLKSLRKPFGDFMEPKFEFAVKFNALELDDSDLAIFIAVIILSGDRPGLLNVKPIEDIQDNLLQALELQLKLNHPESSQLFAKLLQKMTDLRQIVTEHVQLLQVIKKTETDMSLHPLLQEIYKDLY

[5] = biological target: T5, Peroxisome proliferator-activated receptor delta (Homo sapiens, UniProt Q03181); experiment: Agonistic transcriptional activity in CV-1 cells expressing Gal4-PPAR delta chimera; type: functional, cell-based
T5 sequence (Q03181 whole entry): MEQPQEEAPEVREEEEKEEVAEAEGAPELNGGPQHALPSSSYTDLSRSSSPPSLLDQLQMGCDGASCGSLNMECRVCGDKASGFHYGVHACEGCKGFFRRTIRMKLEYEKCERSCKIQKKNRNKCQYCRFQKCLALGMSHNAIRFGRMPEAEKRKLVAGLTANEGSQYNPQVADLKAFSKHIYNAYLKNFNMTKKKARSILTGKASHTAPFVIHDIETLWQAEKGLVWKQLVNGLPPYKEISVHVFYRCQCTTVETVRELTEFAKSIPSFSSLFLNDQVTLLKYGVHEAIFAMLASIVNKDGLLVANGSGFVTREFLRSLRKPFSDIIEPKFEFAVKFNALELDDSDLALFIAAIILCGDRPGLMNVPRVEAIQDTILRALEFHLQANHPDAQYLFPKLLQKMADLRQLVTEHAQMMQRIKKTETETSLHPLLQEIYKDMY

[6] = biological target: T6, Peroxisome proliferator-activated receptor alpha (Homo sapiens, UniProt Q07869); experiment: Agonistic transcriptional activity in CV-1 cells expressing Gal4-PPAR alpha chimera; type: functional, cell-based
T6 sequence (Q07869 whole entry): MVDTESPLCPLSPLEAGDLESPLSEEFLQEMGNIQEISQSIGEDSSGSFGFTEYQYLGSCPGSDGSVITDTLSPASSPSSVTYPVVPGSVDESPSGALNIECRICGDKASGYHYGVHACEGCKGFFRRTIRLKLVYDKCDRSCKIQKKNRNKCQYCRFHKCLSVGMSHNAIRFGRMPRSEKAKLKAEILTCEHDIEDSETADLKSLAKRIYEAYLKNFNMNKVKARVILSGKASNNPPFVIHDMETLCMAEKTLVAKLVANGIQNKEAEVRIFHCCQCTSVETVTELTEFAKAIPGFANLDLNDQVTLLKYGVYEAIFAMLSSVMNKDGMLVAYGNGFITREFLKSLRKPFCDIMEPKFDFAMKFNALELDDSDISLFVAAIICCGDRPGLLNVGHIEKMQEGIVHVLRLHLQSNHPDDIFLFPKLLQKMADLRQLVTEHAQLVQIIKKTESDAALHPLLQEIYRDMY

Rattus norvegicus [7] = experiment: In vivo increase in HDL-c in ZDF rats at 30 mg/kg bid dose after 7 day administration; type: functional
Rattus norvegicus [8] = experiment: In vivo percent reduction in plasma glucose in ZDF rats at 30 mg/kg bid dose after 7 day administration; type: functional
Rattus norvegicus [9] = experiment: In vivo percent reduction in serum triglycerides in ZDF rats at 30 mg/kg bid dose after 7 day administration; type: functional
[10] = Mean plasma concentration at a oral dose of 3 mg/kg in rat at 0.5 hr; type: ADME, organism-based; set-up: dose 3 mg/kg, route oral
[11] = Mean plasma concentration at a oral dose of 3 mg/kg in rat at 1.0 hr; type: ADME, organism-based; set-up: dose 3 mg/kg, route oral
[12] = Mean plasma concentration at a oral dose of 3 mg/kg in rat at 2.0 hr; type: ADME, organism-based; set-up: dose 3 mg/kg, route oral

EC50 [1] [nM] | EC50 [2] [nM] | EC50 [3] [nM] | EC50 [4] [nM] | EC50 [5] [nM] | EC50 [6] [nM] | concentration at 0.5 h [10] [ng/mL] | concentration at 1 h [11] [ng/mL] | concentration at 2 h [12] [ng/mL] | SMILES | Reduction (Rattus norvegicus [7]) [%] | Reduction (Rattus norvegicus [8]) [%] | Reduction (Rattus norvegicus [9]) [%]
> 1000 | 28 | 19 | 4 | 19 | 620 | 373 | 722 | 524 | CC(C)(Oc1cccc(CCCN(Cc2ccc(C(F)(F)F)cc2C(F)(F)F)C(=O)Cc2ccc(C(F)(F)F)cc2)c1)C(=O)O | 24 | 47 | 51
 |  |  | 0.5 | 160 | 230 |  |  |  | CCOC(=O)c1ccc(NC(=O)N(CCCc2cccc(OC(C)(C)C(=O)O)c2)Cc2ccc(C(F)(F)F)cc2C(F)(F)F)cc1 |  |  | 
 |  |  | 30 | 93 | 710 |  |  |  | CC(C)(Oc1cccc(CCCN(Cc2ccc(C(F)(F)F)cc2C(F)(F)F)C(=O)COc2ccc(Cl)c(Cl)c2)c1)C(=O)O |  |  | 

From ChEMBL document CHEMBL1133842, “Identification of a series of PPAR gamma/delta dual agonists via solid-phase parallel synthesis” (Bioorg Med Chem Lett, 2001)
